Entries after “also recorded” stand apart in the source; their conditions may differ. Counter-ions that a name gives are not always drawn. Positions of bridges follow the written chain, without caps; N, C: chain ends. Non-standard residues stand in square brackets, D forms with d. Residues, ends and D or L forms follow the SMILES beside them. Dmt = Cc1cc(O)cc(C)c1C[C@H](N)C(=O)O; dPen = CC(C)(S)[C@@H](N)C(=O)O
Columns and labels:
δ opioid receptors = δ opioid receptors (Rattus norvegicus, UniProt P33533); experiment: Opiate Binding Assay, displacement of 3[H]-DSLET
μ opioid receptors = μ opioid receptors (Rattus norvegicus, UniProt P33535); experiment: Opiate Binding Assay, displacement of 3[H]-DAMPGO
CD Charles River mice = experiment: Writhing Assay (PBQ-induced writhing); format: in vivo, mouse; settings: for number of mice out of ten in which peptide was active, Intragastric: 10 mg/kg i.g., PBQ i.p. 15 min after dosing; for ED50 value, subcutaneous: s.c.
Text: The "Writhing Assay" is one of the most widely-used experimental procedures for measuring the analgesic activity of different narcotic and nonnarcotic analgesic agents, and involves the continuous, chemically-induced pain of visceral origin to an animal, such as a mouse or rat. [Gyires et al., Arch. int. Pharmacodyn, 267, 131-140 (1984); C. Vander Wende et al., Fed. Proc., 15, 494 (1956); Koster et al., Fed. Proc., 18, 412 (1959); and Witken et al., J. Pharmacol. Exp. Ther., 133, 400-408 (1961). ] Chemicals which may be used to induce this pain include phenylbenzoquinone (PBQ) and acetic acid. As a result of the chemical irritation to the animal, a characteristic stretching and writhing of the animal (dorsiflexion of the animal's back, extension of its hindlimbs an the strong contraction of its abdominal musculature) will generally occur. […] Drugs which reduce the number of writhes of the animal appear to restore the normal nociceptive threshold of the animal.
This assay was conducted generally in the manner described by R. I. Taber, "Predictive Value of Analgesic Assays in Mice and Rats,"Advances in Biochemical Psychopharmacology, 8, 191 (1974). The Methyl Ester Tetrapeptide and Test Tetrapeptides Nos. 1, 3, 4, 5, 6, 7, 8 and 9 were tested in this assay.
Two hundred CD Charles River mice, weighing 20 to 30 grams were used in this assay.
Twenty-five minutes after subcutaneous administration, and fifteen minutes after intragastric administration, to the mice of 10 mg per kilogram of body weight of either a Test Tetrapeptide or the Methyl Ester Tetrapeptide, […] of body weight of a 0.025% w/v solution of PBQ was injected intraperitoneally into each mouse. Some mice were given saline in place of a Test Tetrapeptide or the Methyl Ester Tetrapeptide, and were used as a control group.
Five minutes later, each mouse was individually placed into a glass beaker for observation, and the number of writhes occurring during the following ten-minute period was counted.
A tetrapeptide compound was considered to be "active" (to have produced analgesia in a mouse) if, in accordance with the conditions set forth above, and under the test criteria employed for this assay, after the administration of 10 mg per kilogram of body weight of the tetrapeptide to the mouse, the number of writhes elicited by a mouse injected with PBQ was equal to, or less than, one-half the median number of writhes recorded for the saline-treated control group of mice that day, as described by R. I. Taber, supra.
The standard initial screening dose of a compound employed in this assay was 10 mg per kilogram (mpk) of body weight for both routes of administration. If this initial screening dose of the tetrapeptide produced analgesia in seven of ten mice, then the effect of additional doses of the tetrapeptide on the writhing response was evaluated, and then the ED50 value (that dose of a Test Tetrapeptide or the Methyl Ester Tetrapeptide which produced analgesia in 50% of the mice to which the tetrapeptide was administered) was generally calculated. A maximum likelihood function was used to determine the ED50 value. (The slopes of the dose-response curves for all tetrapeptides analyzed were compared as described by Tallarida and Murray, Manual of Pharmacologic Calculations, Page 11 (Springer Verlag, N.Y., 1981)).

[1] = system: Charles River albino mice; experiment: Tail Flick Assay; format: in vivo, mouse; settings: listed as Test Tetrapeptide No. 1, monohydrochloride
Text: (§1) The "Tail Flick Assay" and the "Hot Plate Assay" (also known as the "Hind Paw Lick Assay") use thermal pain of transient duration, and are tests in which the pain threshold of the mice or rats being analyzed has not been altered. They are useful for evaluating the ability of a compound or drug to increase the animal's pain threshold (i.e. prolong response latencies), rather than to restore normal thresholds.
(§2) The heat-induced response to the Tail Flick Assay is a reflex reaction mediated at the level of the spinal cord. The heat-induced response to the Hot Plate Assay, however, is a more complex behavior requiring integration at higher centers in the brain. […]
(§3) Tail flick response latencies (defined as the time that elapsed between the onset of a high intensity beam of light and the reflex removal of the mouse or rat's tail) and hot plate response latencies (defined as the time that elapsed between the placement of a mouse or rat on a 55 degrees Celsius surface and a lick of the hind paw) were separately, but consecutively, measured before (baseline) and again at fixed intervals after subcutaneous or intracerebroventricular administration of one of the tetrapeptide compounds of the invention, the Methyl Ester Tetrapeptide, the Mosberg Tetrapeptide, or after the administration of saline (controls). […]

[2] = system: Charles River albino mice; experiment: Hot Plate Assay (Hind Paw Lick Assay); format: in vivo, mouse
Text: as §1, §2, §3

Chain of δ opioid receptors (P33533 whole entry): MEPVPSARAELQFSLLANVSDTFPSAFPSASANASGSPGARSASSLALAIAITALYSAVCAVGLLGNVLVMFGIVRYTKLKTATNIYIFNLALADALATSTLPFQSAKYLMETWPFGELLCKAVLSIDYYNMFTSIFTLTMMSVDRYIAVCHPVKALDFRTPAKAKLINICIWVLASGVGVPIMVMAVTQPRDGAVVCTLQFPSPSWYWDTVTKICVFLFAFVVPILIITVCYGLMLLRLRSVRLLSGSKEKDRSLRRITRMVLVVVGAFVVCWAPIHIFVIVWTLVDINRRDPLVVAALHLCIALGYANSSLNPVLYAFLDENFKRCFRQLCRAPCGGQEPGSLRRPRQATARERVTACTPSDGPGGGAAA
Chain of μ opioid receptors (P33535 whole entry): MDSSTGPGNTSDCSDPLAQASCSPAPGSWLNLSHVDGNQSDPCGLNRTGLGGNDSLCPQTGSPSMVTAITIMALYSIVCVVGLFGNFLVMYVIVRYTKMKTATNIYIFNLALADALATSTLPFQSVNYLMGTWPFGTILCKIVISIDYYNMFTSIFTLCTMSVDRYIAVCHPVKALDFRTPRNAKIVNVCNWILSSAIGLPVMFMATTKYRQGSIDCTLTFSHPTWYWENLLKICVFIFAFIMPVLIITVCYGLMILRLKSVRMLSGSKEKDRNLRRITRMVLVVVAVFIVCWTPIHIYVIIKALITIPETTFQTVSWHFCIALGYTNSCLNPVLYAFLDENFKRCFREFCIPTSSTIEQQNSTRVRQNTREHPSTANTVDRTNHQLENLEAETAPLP

Cc1cc(O)cc(C)c1C[C@H](N)C(=O)N[C@@H]1CSSC(C)(C)[C@H](C(=O)O)NC(=O)[C@H](Cc2ccccc2)NC1=O [Example 4, 2,6-dimethyl-L-tyrosyl-D-cysteinyl-L-phenylalanyl-3-mercapto-D-valine, cyclic (2→4)-disulfide] (H-[Dmt][dC]F[dPen]-OH; disulfide 2-4)
IC50 (δ opioid receptors): 0.4 nM | IC50 (μ opioid receptors): 5.4 nM

2,6-dimethyl-L-tyrosyl-D-cysteinyl-4-chloro-L-phenylalanyl-3-mercapto-D-valine, cyclic (2→4)-disulfide, methyl ester, monohydrochloride [Example 32]
number of mice out of ten in which peptide was active, Intragastric (CD Charles River mice): 4/10 | number of mice out of ten in which peptide was active, Subcutaneous (CD Charles River mice; 10 mg/kg s.c., PBQ i.p. 25 min after dosing): 4/10 | Percent Displacement (δ) (δ opioid receptors; at 100 nM, 3[H]-DSLET): 44% | Percent Displacement (μ) (μ opioid receptors; at 100 nM, 3[H]-DAMPGO): 18%

COC(=O)[C@@H]1NC(=O)[C@H](Cc2ccccc2)NC(=O)[C@H](NC(=O)[C@@H](N)Cc2c(C)cc(O)cc2C)CSSC1(C)C [Example 25, 2,6-dimethyl-L-tyrosyl-D-cysteinyl-L-phenylalanyl-3-mercapto-D-valine, cyclic (2→4)-disulfide. methyl ester, monohydrochloride] (H-[Dmt][dC]F[dPen]-OMe; disulfide 2-4)
number of mice out of ten in which peptide was active, Intragastric (CD Charles River mice): 3/10 | ED50 value, subcutaneous (CD Charles River mice): 4.1 mg per kg of body weight | ED50 value, subcutaneous (CD Charles River mice; PBQ i.p. 25 min after dosing): 4.1 mpk | activity (increase in tail flick latency), Intracerebroventricular ([1]; i.c.v., at 1 μg/kg): active | activity (increase in tail flick latency), Subcutaneous ([1]; s.c., at 100 mpk, 100 mg/kg): Active; also recorded: showed activity | activity (increase in hot plate latency), Intracerebroventricular ([2]; i.c.v., at 1.0 μg/kg): Active | activity (increase in hot plate latency), Subcutaneous ([2]; s.c., at 100 mpk, listed as Test Tetrapeptide No. 1, monohydrochloride, 100 mg/kg): Active; also recorded: showed activity | Mean IC50 Value μ/δ Ratio (δ opioid receptors; ratio of mean IC50 μ to δ, above 1.0 = more specific for δ): 1.2

— patent US5216124A, “Substituted cyclic tetrapeptides” (G. D. Searle & Co., priority 1991, dated 1993)
